Laboratory results from ChEMBL document CHEMBL5108028 (Bioorg Med Chem, 2022).
Active and inactive are the calls of the source. The rule behind the calls is not given here. Where a SMILES comes first, the peptide text is derived from it. [ ]: non-standard residue; d: D form. 2Thi = N[C@@H](Cc1cccs1)C(=O)O; hSer = N[C@@H](CCO)C(=O)O; Nle = CCCC[C@H](N)C(=O)O

Columns and labels:
MKN-7 = assay: Anticancer activity against human MKN-7 cells assessed as inhibition of cell growth incubated for 3 days by MTT assay; assay type: functional, cell-based; details: MKN-7, 72 h
MKN-74 = assay: Anticancer activity against human MKN-74 cells assessed as inhibition of cell growth incubated for 3 days by MTT assay; assay type: functional, cell-based; details: MKN-74, 72 h
[1] = biological target: T1, Cadherin-1 (Homo sapiens) (UniProt P12830); assay: Binding affinity to human E-cadherin in human MKN-7 cell membrane protein fraction measured after 2 hrs by Western blotting based pull-down assay; assay type: cell membranes
T1 sequence (whole entry): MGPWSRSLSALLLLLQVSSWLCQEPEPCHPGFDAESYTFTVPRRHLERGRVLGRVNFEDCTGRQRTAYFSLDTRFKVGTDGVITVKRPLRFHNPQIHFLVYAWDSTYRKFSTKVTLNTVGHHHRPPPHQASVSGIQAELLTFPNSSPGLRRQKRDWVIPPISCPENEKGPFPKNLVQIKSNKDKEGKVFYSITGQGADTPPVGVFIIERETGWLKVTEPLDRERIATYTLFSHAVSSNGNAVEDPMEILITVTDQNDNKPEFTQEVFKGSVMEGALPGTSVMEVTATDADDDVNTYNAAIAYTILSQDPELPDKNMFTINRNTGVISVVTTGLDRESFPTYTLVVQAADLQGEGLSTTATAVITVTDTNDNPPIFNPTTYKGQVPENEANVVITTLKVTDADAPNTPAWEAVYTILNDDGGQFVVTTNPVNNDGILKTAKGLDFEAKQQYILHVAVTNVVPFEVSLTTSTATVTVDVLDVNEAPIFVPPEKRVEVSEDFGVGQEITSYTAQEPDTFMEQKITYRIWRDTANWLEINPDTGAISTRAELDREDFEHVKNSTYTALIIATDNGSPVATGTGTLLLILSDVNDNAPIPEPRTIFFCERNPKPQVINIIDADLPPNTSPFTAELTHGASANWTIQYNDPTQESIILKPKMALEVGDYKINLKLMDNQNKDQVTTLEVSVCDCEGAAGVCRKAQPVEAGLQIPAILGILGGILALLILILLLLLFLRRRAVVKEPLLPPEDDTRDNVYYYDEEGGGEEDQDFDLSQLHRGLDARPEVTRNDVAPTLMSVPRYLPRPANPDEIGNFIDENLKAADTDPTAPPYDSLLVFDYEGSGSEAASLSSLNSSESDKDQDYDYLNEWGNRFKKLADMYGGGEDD

Molecule | IC50 (MKN-7) | IC50 (MKN-74) | Activity [1]
H-FIDLNYMVYL-NH2 | 9.81 µM | 1.09 µM | 
H-KVDIVAINDP-OH | 97.3 µg/mL |  | 
H-FIDLNYMVY-NH2 | 4.3 µM | 17.9 µM | 
CC[C@H](C)[C@H](NC(=O)[C@@H](N)Cc1ccccc1)C(=O)N[C@@H](CC(=O)O)C(=O)N[C@@H](CC(C)C)C(=O)N[C@@H](CC(N)=O)C(=O)N[C@@H](Cc1ccc(O)cc1)C(=O)N[C@@H](Cc1cccs1)C(=O)N[C@H](C(=O)N[C@@H](Cc1ccc(O)cc1)C(=O)N[C@@H](CCSC)C(N)=O)C(C)C (H-FIDLNY[2Thi]VYM-NH2) | 6.35 µM | 0.96 µM | 
H-AIDLNYMVYM-OH | 4.03 µM | 9.29 µM | 
H-IDLNYMVYM-NH2 | 11.4 µM | 25.7 µM | 
H-FIDLAYMVYM-OH | 5.8 µM | 8.84 µM | 
H-FIALNYMVYM-OH | 0.98 µM | 1.14 µM | 
H-FIDLNYLVYM-NH2 | 3.36 µM | 0.16 µM | 
H-FADLNYMVYM-OH | 4.38 µM | 3.91 µM | 
H-FIDLNYMVYA-OH | 8.78 µM | 4.5 µM | 
H-FIDLNYMAYM-OH | 14.8 µM | 16.3 µM | 
CCCC[C@H](NC(=O)[C@H](Cc1ccc(O)cc1)NC(=O)[C@H](CC(N)=O)NC(=O)[C@H](CC(C)C)NC(=O)[C@H](CC(=O)O)NC(=O)[C@@H](NC(=O)[C@@H](N)Cc1ccccc1)[C@@H](C)CC)C(=O)N[C@H](C(=O)N[C@@H](Cc1ccc(O)cc1)C(=O)N[C@@H](CCOC)C(N)=O)C(C)C (H-FIDLNY[Nle]VY[hSer](Me)-NH2) | 0.61 µM | 0.07 µM | 
H-DLNYMVYM-NH2 | 13.5 µM | 20.7 µM | 
H-YMVYMFQYDS-OH | 79.1 µg/mL |  | 
CC[C@H](C)[C@H](NC(=O)[C@@H](N)Cc1ccccc1)C(=O)N[C@@H](CC(=O)O)C(=O)N[C@@H](CC(C)C)C(=O)N[C@@H](CC(N)=O)C(=O)N[C@@H](Cc1ccc(O)cc1)C(=O)N[C@@H](CCSC)C(=O)N[C@H](C(=O)N[C@@H](Cc1ccc(O)cc1)C(=O)N[C@@H](CCOC)C(N)=O)C(C)C (H-FIDLNYMVY[hSer](Me)-NH2) | 4.43 µM | 0.19 µM | 
CC[C@H](C)[C@H](NC(=O)[C@@H](N)Cc1ccccc1)C(=O)N[C@@H](CC(=O)O)C(=O)N[C@@H](CC(C)C)C(=O)N[C@@H](CC(N)=O)C(=O)N[C@@H](Cc1ccc(O)cc1)C(=O)N[C@@H](CCSC)C(=O)N[C@H](C(=O)N[C@@H](Cc1ccc(O)cc1)C(=O)N[C@@H](Cc1cccs1)C(N)=O)C(C)C (H-FIDLNYMVY[2Thi]-NH2) | 8.62 µM | 0.98 µM | 
H-FIDLNAMVYM-OH | 2.62 µM | 1.14 µM | 
H-FIDLNYMVYM-NH2 | 1.13 µM | 0.37 µM | 
H-FIDLNYMVAM-OH | 4.24 µM | 1.11 µM | 
CC[C@H](C)[C@H](NC(=O)[C@@H](N)Cc1ccccc1)C(=O)N[C@@H](CC(=O)O)C(=O)N[C@@H](CC(C)C)C(=O)N[C@@H](CC(N)=O)C(=O)N[C@@H](Cc1ccc(O)cc1)C(=O)N[C@@H](CCOC)C(=O)N[C@H](C(=O)N[C@@H](Cc1ccc(O)cc1)C(=O)N[C@@H](CCSC)C(N)=O)C(C)C (H-FIDLNY[hSer](Me)VYM-NH2) | 3.51 µM | 0.2 µM | 
H-FIDLNYMVYM-OH | 18.9 µg/mL | 13.2 µg/mL | Active
H-FIDLNYFVYM-NH2 | 8.23 µM | 1.59 µM | 
H-FIDANYMVYM-OH | 9.56 µM | 5.47 µM | 
H-FIDLNYMV-NH2 | 8.22 µM | 21.6 µM | 
CCCC[C@H](NC(=O)[C@H](Cc1ccc(O)cc1)NC(=O)[C@H](CC(N)=O)NC(=O)[C@H](CC(C)C)NC(=O)[C@H](CC(=O)O)NC(=O)[C@@H](NC(=O)[C@@H](N)Cc1ccccc1)[C@@H](C)CC)C(=O)N[C@H](C(=O)N[C@@H](Cc1ccc(O)cc1)C(=O)N[C@@H](CCSC)C(N)=O)C(C)C (H-FIDLNY[Nle]VYM-NH2) | 1.64 µM | 0.2 µM | 
CCCC[C@H](NC(=O)[C@H](Cc1ccc(O)cc1)NC(=O)[C@@H](NC(=O)[C@H](CCSC)NC(=O)[C@H](Cc1ccc(O)cc1)NC(=O)[C@H](CC(N)=O)NC(=O)[C@H](CC(C)C)NC(=O)[C@H](CC(=O)O)NC(=O)[C@@H](NC(=O)[C@@H](N)Cc1ccccc1)[C@@H](C)CC)C(C)C)C(N)=O (H-FIDLNYMVY[Nle]-NH2) | 10.2 µM | 0.35 µM | 
H-FIDLNYAVYM-OH | 3.01 µM | 9.05 µM | 
H-FIDLNYMVYF-NH2 | 6.87 µM | 0.25 µM | 
